Measurements reported in patent publication US12122770B1, “2-(benzo[d]oxazol-2-yl)-n'-(nicotinoyloxy)acetimidamide as an antimicrobial compound” (KING FAISAL UNIVERSITY, priority 2023, dated 2024).

Columns and labels:
Pseudomonas aeruginosa = test: Agar plate disc-diffusion, antibacterial activity (inhibition zone); format: cell-based; conditions: Gram negative, DMSO zone subtracted; for inhibition zone, Pseudomonas aeruginosa, A: A = concentration of comp. = 10,000 μL; for inhibition zone, Pseudomonas aeruginosa, B: B = concentration of comp. = 30,000 μL; for inhibition zone, Pseudomonas aeruginosa, C: C = concentration of comp. = 50,000 μL
Protocol: (§1) The agar plate disc-diffusion method was applied. […] The discs were then placed onto the surface of agar plates (nutrient agar for bacteria and Sabouraud's dextrose agar for fungi) seeded with the test organism. Each plate contained 15 mL of the agar medium, previously seeded with 0.2 mL of the broth culture of each organism pregrown for 18 hours. The plates were incubated at 37° C. for 48 hours, and 72 hours for fungi. The inhibition zones was measured in mm. Discs impregnated with DMSO were used as a control, and its inhibition zone was subtracted from the tested compound actual inhibition zone.

Staphylococcus aureus = test: as above; format: cell-based; conditions: Gram positive, DMSO zone subtracted; for inhibition zone, Staphylococcus aureus, A: A = concentration of comp. = 10,000 μL; for inhibition zone, Staphylococcus aureus, B: B = concentration of comp. = 30,000 μL; for inhibition zone, Staphylococcus aureus, C: C = concentration of comp. = 50,000 μL
Protocol: as §1

Escherichia coli = test: as above; format: cell-based; conditions: Gram negative, DMSO zone subtracted; for inhibition zone, Escherichia coli, A: A = concentration of comp. = 10,000 μL; for inhibition zone, Escherichia coli, B: B = concentration of comp. = 30,000 μL; for inhibition zone, Escherichia coli, C: C = concentration of comp. = 50,000 μL
Protocol: as §1

Bacillus Cereus = test: as above; format: cell-based; conditions: Gram positive, DMSO zone subtracted; for inhibition zone, Bacillus Cereus, A: A = concentration of comp. = 10,000 μL; for inhibition zone, Bacillus Cereus, B: B = concentration of comp. = 30,000 μL; for inhibition zone, Bacillus Cereus, C: C = concentration of comp. = 50,000 μL
Protocol: as §1

Aspergillus flavus = test: Agar plate disc-diffusion, antifungal activity (inhibition zone); format: cell-based; conditions: fungal, 72 hours, DMSO zone subtracted; for inhibition zone, Aspergillus flavus, A: A = concentration of comp. = 10,000 μL; for inhibition zone, Aspergillus flavus, B: B = concentration of comp. = 30,000 μL; for inhibition zone, Aspergillus flavus, C: C = concentration of comp. = 50,000 μL
Protocol: as §1

[1] = system: Chrysosporium keratinophilum; test: as above; format: cell-based; conditions: fungal, 72 hours, DMSO zone subtracted; for inhibition zone, Chrysosporium keratinophilum, A: A = concentration of comp. = 10,000 μL; for inhibition zone, Chrysosporium keratinophilum, B: B = concentration of comp. = 30,000 μL; for inhibition zone, Chrysosporium keratinophilum, C: C = concentration of comp. = 50,000 μL
Protocol: as §1

| Structure (SMILES) | melting point | inhibition zone, Pseudomonas aeruginosa, A (Pseudomonas aeruginosa) | inhibition zone, Pseudomonas aeruginosa, B (Pseudomonas aeruginosa) | inhibition zone, Pseudomonas aeruginosa, C (Pseudomonas aeruginosa) | inhibition zone, Staphylococcus aureus, A (Staphylococcus aureus) | inhibition zone, Staphylococcus aureus, B (Staphylococcus aureus) | inhibition zone, Staphylococcus aureus, C (Staphylococcus aureus) | inhibition zone, Escherichia coli, A (Escherichia coli) | inhibition zone, Escherichia coli, B (Escherichia coli) | inhibition zone, Escherichia coli, C (Escherichia coli) | inhibition zone, Bacillus Cereus, A (Bacillus Cereus) | inhibition zone, Bacillus Cereus, B (Bacillus Cereus) | inhibition zone, Bacillus Cereus, C (Bacillus Cereus) | inhibition zone, Aspergillus flavus, A (Aspergillus flavus) | inhibition zone, Aspergillus flavus, B (Aspergillus flavus) | inhibition zone, Aspergillus flavus, C (Aspergillus flavus) | inhibition zone, Chrysosporium keratinophilum, A [1] | inhibition zone, Chrysosporium keratinophilum, B [1] | inhibition zone, Chrysosporium keratinophilum, C [1] |
| --- | --- | --- | --- | --- | --- | --- | --- | --- | --- | --- | --- | --- | --- | --- | --- | --- | --- | --- | --- |
| N/C(Cc1nc2ccccc2o1)=N\OC(=O)c1cccnc1 [compound 3, 2-(benzo[d]oxazol-2-yl)-N′-(nicotinoyloxy)acetimidamide] | 155 to 156 °C | 23 mm | 25 mm | 40 mm | 28 mm | 31 mm | 40 mm | 26 mm | 33 mm | 47 mm | 26 mm | 29 mm | 37 mm | 21 mm | 24 mm | 32 mm | 26 mm | 29 mm | 48 mm |
| O=C(O)c1cn(C2CC2)c2cc(N3CCNCC3)c(F)cc2c1=O [Cip., ciprofloxacin, reference compound] | – | 29 mm | 30 mm | 53 mm | 43 mm | 44 mm | 53 mm | 30 mm | 39 mm | 60 mm | 29 mm | 31 mm | 42 mm | 28 mm | 31 mm | 43 mm | 30 mm | 33 mm | 55 mm |
